In the kinase profiling compilation of Christmann-Franck et al. (2016):
Values joined by “and” are separate entries in the source; they are usually repeats but may differ in a detail not shown here. Identical values can stand only once.

Legend:
Test in all cases: radiometric filter-binding kinase assay, Kinase HotSpot
Details in all cases: compound 0.5 µM; ATP 10 µM
ADRBK2 (human) = ADRBK2 (human) (UniProt P35626)
AKT3 (human) = AKT3 (human) (UniProt Q9Y243)
ALK (human) = ALK (human) (UniProt Q9UM73)
CAMK1D (human) = CAMK1D (human) (UniProt Q8IU85)
CDC42BPB (human) = CDC42BPB (human) (UniProt Q9Y5S2)
CDK5 CDK5R1 p35 (human) = CDK5 CDK5R1 p35 (human) (UniProt Q00535+Q15078)
CDK9 CCNT1 (human) = CDK9 CCNT1 (human) (UniProt P50750+O60563)
CHUK (human) = CHUK (human) (UniProt O15111)
CLK3 (human) = CLK3 (human) (UniProt P49761)
CSNK1E (human) = CSNK1E (human) (UniProt P49674)
CSNK2A2 (human) = CSNK2A2 (human) (UniProt P19784)
EPHA2 (human) = EPHA2 (human) (UniProt P29317)
EPHA5 (human) = EPHA5 (human) (UniProt P54756)
ERBB4 (human) = ERBB4 (human) (UniProt Q15303)
FGFR4 (human) = FGFR4 (human) (UniProt P22455)
GRK4 (human) = GRK4 (human) (UniProt P32298)
HIPK3 (human) = HIPK3 (human) (UniProt Q9H422)
IKBKB (human) = IKBKB (human) (UniProt O14920)
IKBKB (human), sequence (O14920 whole entry, looked up): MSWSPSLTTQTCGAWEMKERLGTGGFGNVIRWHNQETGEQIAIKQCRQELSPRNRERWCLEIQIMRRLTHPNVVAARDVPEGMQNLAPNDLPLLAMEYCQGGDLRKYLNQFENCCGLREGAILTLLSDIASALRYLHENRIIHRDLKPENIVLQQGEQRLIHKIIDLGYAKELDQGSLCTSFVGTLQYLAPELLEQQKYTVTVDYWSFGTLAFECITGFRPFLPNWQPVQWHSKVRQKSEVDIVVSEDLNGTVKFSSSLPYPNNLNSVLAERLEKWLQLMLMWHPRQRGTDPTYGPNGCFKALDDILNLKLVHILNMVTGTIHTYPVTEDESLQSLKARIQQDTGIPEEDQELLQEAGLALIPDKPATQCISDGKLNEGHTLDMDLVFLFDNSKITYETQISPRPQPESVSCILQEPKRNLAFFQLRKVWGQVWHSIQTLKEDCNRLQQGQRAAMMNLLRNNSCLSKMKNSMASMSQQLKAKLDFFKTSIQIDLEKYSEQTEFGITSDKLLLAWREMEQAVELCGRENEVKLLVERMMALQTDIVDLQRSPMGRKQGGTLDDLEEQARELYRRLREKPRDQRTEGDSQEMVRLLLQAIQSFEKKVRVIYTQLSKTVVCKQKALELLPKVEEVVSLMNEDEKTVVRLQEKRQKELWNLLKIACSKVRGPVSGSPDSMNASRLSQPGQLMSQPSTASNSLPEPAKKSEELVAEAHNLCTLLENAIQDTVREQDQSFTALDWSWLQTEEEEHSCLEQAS

MAP3K11 (human) = MAP3K11 (human) (UniProt Q16584)
MAPK1 (human) = MAPK1 (human) (UniProt P28482)
MAPK12 (human) = MAPK12 (human) (UniProt P53778)
MAPK12 (human), sequence (P53778 whole entry, looked up): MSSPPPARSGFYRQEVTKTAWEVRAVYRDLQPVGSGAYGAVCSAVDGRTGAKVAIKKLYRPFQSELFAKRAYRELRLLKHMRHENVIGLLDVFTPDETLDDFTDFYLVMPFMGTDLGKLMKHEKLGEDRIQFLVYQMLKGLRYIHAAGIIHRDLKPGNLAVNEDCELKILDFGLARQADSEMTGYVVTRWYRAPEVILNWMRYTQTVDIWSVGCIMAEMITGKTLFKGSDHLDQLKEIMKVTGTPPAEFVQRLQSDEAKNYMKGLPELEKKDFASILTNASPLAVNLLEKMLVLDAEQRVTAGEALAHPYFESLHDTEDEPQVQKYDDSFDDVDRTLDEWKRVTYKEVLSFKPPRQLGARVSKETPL

MAPK13 (human) = MAPK13 (human) (UniProt O15264)
MAPK13 (human), sequence (O15264 whole entry, looked up): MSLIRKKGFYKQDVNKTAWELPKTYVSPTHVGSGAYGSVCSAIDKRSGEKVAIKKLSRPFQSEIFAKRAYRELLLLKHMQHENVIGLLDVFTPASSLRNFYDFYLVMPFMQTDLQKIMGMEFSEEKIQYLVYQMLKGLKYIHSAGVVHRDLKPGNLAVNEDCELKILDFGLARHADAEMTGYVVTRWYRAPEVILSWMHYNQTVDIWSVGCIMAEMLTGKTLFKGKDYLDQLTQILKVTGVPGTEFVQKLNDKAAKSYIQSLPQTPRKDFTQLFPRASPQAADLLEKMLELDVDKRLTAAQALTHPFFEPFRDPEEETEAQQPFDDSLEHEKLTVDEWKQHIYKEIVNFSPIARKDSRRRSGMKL

MAPK3 (human) = MAPK3 (human) (UniProt P27361)
MARK4 (human) = MARK4 (human) (UniProt Q96L34)
NLK (human) = NLK (human) (UniProt Q9UBE8)
NTRK1 (human) = NTRK1 (human) (UniProt P04629)
NTRK2 (human) = NTRK2 (human) (UniProt Q16620)
NTRK2 (human), sequence (Q16620 whole entry, looked up): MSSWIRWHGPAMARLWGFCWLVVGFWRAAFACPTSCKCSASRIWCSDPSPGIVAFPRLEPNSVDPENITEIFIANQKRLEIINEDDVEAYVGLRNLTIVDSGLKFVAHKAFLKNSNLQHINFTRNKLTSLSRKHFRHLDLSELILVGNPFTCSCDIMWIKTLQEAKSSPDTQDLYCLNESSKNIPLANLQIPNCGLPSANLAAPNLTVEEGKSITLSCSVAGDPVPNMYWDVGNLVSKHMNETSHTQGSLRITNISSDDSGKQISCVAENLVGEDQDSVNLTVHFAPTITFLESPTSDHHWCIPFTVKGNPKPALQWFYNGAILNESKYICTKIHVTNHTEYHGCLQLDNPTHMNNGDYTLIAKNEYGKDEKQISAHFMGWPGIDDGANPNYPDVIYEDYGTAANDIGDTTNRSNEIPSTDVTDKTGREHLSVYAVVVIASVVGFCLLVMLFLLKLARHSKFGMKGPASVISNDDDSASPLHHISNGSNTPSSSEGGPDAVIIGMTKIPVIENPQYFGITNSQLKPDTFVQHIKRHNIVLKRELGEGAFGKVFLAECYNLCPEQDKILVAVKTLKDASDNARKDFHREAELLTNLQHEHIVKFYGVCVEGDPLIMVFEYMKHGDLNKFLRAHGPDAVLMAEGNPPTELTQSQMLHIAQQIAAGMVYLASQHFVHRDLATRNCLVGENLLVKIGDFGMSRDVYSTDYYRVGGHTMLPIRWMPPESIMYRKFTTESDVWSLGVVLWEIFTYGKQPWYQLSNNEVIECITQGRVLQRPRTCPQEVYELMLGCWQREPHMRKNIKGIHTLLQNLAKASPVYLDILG

NTRK3 (human) = NTRK3 (human) (UniProt Q16288)
PAK3 (human) = PAK3 (human) (UniProt O75914)
PKN2 (human) = PKN2 (human) (UniProt Q16513)
PKN2 (human), sequence (Q16513 whole entry, looked up): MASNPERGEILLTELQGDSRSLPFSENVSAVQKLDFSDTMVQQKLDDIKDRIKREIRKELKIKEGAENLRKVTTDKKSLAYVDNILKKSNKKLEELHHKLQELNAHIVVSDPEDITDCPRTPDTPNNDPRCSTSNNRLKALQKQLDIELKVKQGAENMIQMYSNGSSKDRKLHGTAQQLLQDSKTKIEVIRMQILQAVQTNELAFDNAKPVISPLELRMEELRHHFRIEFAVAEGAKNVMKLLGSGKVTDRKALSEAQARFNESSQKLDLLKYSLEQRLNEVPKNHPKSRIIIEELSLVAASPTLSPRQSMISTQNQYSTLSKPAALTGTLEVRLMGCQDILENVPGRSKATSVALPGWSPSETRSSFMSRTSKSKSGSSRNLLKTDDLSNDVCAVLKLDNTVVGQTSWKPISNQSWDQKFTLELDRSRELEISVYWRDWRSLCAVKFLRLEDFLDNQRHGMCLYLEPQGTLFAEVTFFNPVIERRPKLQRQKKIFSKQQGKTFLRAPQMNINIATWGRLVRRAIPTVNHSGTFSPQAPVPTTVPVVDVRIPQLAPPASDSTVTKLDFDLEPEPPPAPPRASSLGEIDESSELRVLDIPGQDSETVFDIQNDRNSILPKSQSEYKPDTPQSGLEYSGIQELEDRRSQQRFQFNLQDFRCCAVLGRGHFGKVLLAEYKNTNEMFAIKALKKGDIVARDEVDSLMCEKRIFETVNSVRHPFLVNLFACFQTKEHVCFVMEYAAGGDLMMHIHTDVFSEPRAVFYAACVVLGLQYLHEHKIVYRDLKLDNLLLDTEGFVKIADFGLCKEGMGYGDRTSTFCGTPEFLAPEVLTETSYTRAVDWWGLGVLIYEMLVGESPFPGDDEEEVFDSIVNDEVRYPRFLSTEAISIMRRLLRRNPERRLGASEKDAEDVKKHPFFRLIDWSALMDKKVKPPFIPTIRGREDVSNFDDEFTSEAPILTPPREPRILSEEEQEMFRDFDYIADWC

PRKACA (human) = PRKACA (human) (UniProt P17612)
PRKCE (human) = PRKCE (human) (UniProt Q02156)
PRKCG (human) = PRKCG (human) (UniProt P05129)
PRKG1 (human) = PRKG1 (human) (UniProt Q13976)
PRKG1 (human), sequence (Q13976 whole entry, looked up): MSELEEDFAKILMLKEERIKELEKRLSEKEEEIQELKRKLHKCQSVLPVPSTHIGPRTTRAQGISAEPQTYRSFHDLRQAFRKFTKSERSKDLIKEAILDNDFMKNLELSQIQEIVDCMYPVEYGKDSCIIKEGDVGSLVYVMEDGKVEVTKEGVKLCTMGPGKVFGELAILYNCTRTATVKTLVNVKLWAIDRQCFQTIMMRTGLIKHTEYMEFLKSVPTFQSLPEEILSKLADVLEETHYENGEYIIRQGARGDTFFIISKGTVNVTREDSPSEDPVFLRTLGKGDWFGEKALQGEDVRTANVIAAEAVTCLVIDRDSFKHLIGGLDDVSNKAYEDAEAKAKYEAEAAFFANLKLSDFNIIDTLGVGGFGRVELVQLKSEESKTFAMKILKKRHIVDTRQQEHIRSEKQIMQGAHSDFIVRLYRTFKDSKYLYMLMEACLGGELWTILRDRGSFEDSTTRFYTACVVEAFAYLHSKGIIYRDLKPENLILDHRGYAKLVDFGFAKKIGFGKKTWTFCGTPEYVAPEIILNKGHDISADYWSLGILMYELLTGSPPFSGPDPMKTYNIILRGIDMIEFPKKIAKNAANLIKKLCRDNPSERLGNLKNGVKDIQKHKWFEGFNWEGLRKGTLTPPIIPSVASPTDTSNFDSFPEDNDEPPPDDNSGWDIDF

PRKG2 (human) = PRKG2 (human) (UniProt Q13237)
RAF1 (human) = RAF1 (human) (UniProt P04049)
ROCK2 (human) = ROCK2 (human) (UniProt O75116)
STK11 (human) = STK11 (human) (UniProt Q15831)
STK11 (human), sequence (Q15831 whole entry, looked up): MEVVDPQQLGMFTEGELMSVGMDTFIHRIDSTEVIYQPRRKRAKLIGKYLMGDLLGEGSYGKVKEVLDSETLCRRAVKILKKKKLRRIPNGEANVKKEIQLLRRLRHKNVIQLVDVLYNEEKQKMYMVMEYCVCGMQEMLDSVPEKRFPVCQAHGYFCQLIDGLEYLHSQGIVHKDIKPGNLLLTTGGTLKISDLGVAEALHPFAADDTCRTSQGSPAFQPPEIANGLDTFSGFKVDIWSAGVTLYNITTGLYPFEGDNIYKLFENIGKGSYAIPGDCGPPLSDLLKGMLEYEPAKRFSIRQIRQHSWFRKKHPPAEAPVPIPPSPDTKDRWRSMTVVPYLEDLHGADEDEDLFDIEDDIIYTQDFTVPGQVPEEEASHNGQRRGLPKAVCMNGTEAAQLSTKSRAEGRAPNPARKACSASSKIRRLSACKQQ

TGFBR2 (human) = TGFBR2 (human) (UniProt P37173)
TGFBR2 (human), sequence (P37173 whole entry, looked up): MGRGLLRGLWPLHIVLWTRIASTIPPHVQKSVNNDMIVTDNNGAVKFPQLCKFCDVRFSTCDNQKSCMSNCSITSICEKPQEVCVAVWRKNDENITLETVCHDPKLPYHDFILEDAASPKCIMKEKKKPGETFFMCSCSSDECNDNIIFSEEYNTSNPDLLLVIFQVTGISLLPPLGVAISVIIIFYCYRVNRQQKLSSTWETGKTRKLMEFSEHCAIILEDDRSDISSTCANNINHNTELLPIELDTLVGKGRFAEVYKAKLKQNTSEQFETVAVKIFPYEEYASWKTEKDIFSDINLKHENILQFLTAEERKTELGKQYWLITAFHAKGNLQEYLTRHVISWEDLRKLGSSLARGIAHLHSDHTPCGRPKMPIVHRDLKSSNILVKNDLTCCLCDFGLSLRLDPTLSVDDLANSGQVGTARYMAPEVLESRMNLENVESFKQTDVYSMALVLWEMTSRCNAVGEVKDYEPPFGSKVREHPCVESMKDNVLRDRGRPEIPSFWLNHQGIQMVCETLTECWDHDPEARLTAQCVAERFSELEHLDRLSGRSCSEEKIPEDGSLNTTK

TSSK1B (human) = TSSK1B (human) (UniProt Q9BXA7)
ULK1 (human) = ULK1 (human) (UniProt O75385)

Cc1[nH]c(/C=C2\C(=O)Nc3ccc(S(=O)(=O)N(C)c4cccc(Cl)c4)cc32)c(C)c1C(=O)N1CCN(C)CC1 gave a residual activity (ADRBK2 (human)) of 103%, a residual activity (AKT3 (human)) of 107% and a residual activity (ALK (human)) of 77.7%. The residual activity (CAMK1D (human)) was 138%, the residual activity (CDC42BPB (human)) was 113% and the residual activity (CDK5 CDK5R1 p35 (human)) was 95.8%. For the same compound, the residual activity (CDK9 CCNT1 (human)) was 91%, the residual activity (CHUK (human)) was 100% and the residual activity (CLK3 (human)) was 71.1%. The residual activity (CSNK1E (human)) was 76.1%, the residual activity (CSNK2A2 (human)) was 84.6% and the residual activity (EPHA2 (human)) was 97.8%. The residual activity (EPHA5 (human)) was 96.4%, the residual activity (ERBB4 (human)) was 105% and the residual activity (FGFR4 (human)) was 104%. It also gave a residual activity (GRK4 (human)) of 103%, a residual activity (HIPK3 (human)) of 103% and a residual activity (IKBKB (human)) of 107%. It also gave a residual activity (MAP3K11 (human)) of 79.1%, a residual activity (MAPK1 (human)) of 85.1% and a residual activity (MAPK12 (human)) of 99.8%. It also gave a residual activity (MAPK13 (human)) of 100%, a residual activity (MAPK3 (human)) of 106% and a residual activity (MARK4 (human)) of 36.2%. It also gave a residual activity (NLK (human)) of 106%, a residual activity (NTRK1 (human)) of 7.81% and a residual activity (NTRK2 (human)) of 35.7%. It also gave a residual activity (NTRK3 (human)) of 5.93%, a residual activity (PAK3 (human)) of 93.5% and a residual activity (PKN2 (human)) of 85.4%. It also gave a residual activity (PRKACA (human)) of 100%, a residual activity (PRKCE (human)) of 99.1% and a residual activity (PRKCG (human)) of 94.8%. The residual activity (PRKG1 (human)) was 93.2% and 97.1%, the residual activity (PRKG2 (human)) was 104% and the residual activity (RAF1 (human)) was 114%. The residual activity (ROCK2 (human)) was 58.2%, the residual activity (STK11 (human)) was 89.9% and the residual activity (TGFBR2 (human)) was 127%. For the same compound, the residual activity (TSSK1B (human)) was 21.7% and the residual activity (ULK1 (human)) was 5.17%.
